Laboratory results from ChEMBL document CHEMBL1133506, “3-(3,5-Dimethoxyphenyl)-1,6-naphthyridine-2,7-diamines and related 2-urea derivatives are potent and selective inhibitors of the FGF receptor-1 tyrosine kinase” (J Med Chem, 2000).

Key:
[1] = target: Platelet-derived growth factor receptor beta (Mus musculus, UniProt P05622)
Description: Inhibition of the phosphorylation of a random glutamate-tyrosine (4:1) copolymer by isolated mouse Platelet-derived growth factor protein.

[2] = target: T1, Fibroblast growth factor receptor 1 (Homo sapiens, UniProt P11362)
Description: Inhibition of the phosphorylation of a random glutamate-tyrosine (4:1) copolymer by isolated Fibroblast growth factor receptor 1.

[3] = target: Proto-oncogene tyrosine-protein kinase Src (Gallus gallus) (UniProt P00523); experiment: Inhibition of the phosphorylation of a random glutamate-tyrosine (4:1) copolymer by isolated avian c-Src protein.
HUVEC [4] = experiment: (§1) Inhibition of microcapillary growth in HUVEC cells; settings: Homo sapiens
Ovarian cancer cell line = experiment: Inhibition of human ovarian carcinoma (A90) FGF-R overexpressing cell proliferation
C6 = experiment: Inhibition of PDGF-dependent rat glioma C6 cell proliferation
HUVEC [5] = experiment: Inhibition of in vitro cell Human umbilical vein endothelial (HUVEC) cell proliferation
[6] = target: T1, Fibroblast growth factor receptor 1; experiment: Inhibition of bFGF-mediated tyrosine phosphorylation; type: functional
HUVEC [7] = experiment: as §1; type: functional, cell-based; settings: Homo sapiens
HUVEC [8] = experiment: Inhibition of Matrigel invasion assay in HUVEC cells; type: functional, cell-based; settings: Homo sapiens
Mus musculus [9] = experiment: Weight change in mammary 16/c murine tumor at 80 mg/kg peroral dose for schedule q12hx2, days 1-9; type: functional; settings: route oral
Mus musculus [10] = experiment: Difference in days for treated (T) and control (C) tumors to reach 750 mg in mammary 16/c murine tumor at 200 mg/kg; type: functional
Mus musculus [11] = experiment: Difference in days for treated (T) and control (C) tumors to reach 750 mg in mammary 16/c murine tumor at 80 mg/kg; type: functional
M5076 [12] = experiment: Weight change in murine M5076 sarcoma tumor at 200 mg/kg peroral dose days 8-16; type: functional, organism-based; set-up: dose 200 mg/kg; settings: Mus musculus
Mus musculus [13] = experiment: Ratio of treated to control tumor mass on last therapy day in lewis lung murine tumor at 200 mg/kg dose; type: functional
Mus musculus [14] = experiment: Ratio of treated to control tumor mass on last therapy day in mammary 16/c murine tumor at 200 mg/kg dose; type: functional
M5076 [15] = experiment: Ratio of treated to control tumor mass on last therapy day in M5076 sarcoma murine tumor at 200 mg/kg; type: functional, Mus musculus
Mus musculus [16] = experiment: Difference in days for the treated (T) and control (C) tumors to reach 750 mg in lewis lung murine tumor at 200 mg/kg; type: functional
Mus musculus [17] = experiment: Weight change in mammary 16/c murine tumor at 200 mg/kg peroral dose for days 1-9; type: functional, organism-based; set-up: dose 200 mg/kg
[18] = test system: Lewis lung carcinoma cell line; experiment: Weight change in lewis lung murine tumor at 200 mg/kg peroral dose for days 4-12; type: functional, Mus musculus; settings: route oral
M5076 [19] = experiment: Difference in days for treated (T) and control (C) tumors to reach 750 mg in murine M5076 sarcoma tumor at 200 mg/kg; type: functional, Mus musculus

T1 sequence (P11362 whole entry): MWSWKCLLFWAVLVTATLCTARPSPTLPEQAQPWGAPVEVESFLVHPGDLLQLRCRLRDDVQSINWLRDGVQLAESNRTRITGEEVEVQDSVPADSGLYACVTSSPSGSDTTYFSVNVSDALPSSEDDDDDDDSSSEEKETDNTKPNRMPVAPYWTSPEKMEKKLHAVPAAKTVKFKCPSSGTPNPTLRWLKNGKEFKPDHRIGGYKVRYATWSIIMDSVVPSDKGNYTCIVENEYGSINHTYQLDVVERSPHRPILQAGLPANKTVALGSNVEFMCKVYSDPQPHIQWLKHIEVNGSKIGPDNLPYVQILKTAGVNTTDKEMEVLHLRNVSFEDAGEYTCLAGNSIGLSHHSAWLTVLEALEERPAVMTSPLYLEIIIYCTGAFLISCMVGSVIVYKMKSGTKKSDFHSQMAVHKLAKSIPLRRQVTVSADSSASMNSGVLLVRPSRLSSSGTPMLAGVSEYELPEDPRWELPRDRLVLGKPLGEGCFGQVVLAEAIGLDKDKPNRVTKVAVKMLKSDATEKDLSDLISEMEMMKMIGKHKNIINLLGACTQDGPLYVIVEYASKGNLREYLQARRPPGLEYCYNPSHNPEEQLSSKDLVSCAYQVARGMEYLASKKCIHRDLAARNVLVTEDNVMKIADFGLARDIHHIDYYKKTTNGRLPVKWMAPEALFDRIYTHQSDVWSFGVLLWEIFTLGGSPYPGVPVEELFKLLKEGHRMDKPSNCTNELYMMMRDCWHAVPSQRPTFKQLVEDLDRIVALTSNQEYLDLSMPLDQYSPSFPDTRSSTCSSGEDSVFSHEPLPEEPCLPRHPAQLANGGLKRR
Sequence of Platelet-derived growth factor receptor beta (P05622 whole entry): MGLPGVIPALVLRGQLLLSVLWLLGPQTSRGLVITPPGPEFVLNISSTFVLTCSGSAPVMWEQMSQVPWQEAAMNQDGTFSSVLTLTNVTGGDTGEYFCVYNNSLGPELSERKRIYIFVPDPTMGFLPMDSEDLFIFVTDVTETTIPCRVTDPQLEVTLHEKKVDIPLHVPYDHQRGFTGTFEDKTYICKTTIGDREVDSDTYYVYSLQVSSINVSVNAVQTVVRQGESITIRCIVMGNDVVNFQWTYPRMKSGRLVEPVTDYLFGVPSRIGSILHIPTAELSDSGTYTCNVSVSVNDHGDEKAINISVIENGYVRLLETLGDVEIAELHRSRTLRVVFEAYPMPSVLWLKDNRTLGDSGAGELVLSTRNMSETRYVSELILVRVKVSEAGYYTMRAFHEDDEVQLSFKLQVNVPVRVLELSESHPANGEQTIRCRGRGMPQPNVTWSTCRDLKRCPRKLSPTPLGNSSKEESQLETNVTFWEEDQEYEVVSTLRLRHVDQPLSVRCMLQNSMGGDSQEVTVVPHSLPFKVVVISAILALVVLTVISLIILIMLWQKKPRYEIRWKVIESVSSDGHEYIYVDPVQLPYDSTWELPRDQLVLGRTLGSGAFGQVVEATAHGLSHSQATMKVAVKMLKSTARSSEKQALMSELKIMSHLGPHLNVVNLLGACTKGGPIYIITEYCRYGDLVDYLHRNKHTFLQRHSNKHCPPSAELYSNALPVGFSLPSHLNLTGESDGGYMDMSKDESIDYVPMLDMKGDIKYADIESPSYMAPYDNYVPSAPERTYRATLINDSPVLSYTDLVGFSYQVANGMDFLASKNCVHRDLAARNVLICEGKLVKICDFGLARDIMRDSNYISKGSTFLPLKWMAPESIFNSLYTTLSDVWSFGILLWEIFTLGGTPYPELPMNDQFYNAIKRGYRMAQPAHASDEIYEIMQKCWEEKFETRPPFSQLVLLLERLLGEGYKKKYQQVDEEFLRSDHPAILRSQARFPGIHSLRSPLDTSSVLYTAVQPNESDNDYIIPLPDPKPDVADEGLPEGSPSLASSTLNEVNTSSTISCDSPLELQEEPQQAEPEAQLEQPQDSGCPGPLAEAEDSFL

Compound	IC50 [1] [nM]	IC50 [2] [nM]	IC50 (Ovarian cancer cell line) [nM]	IC50 (C6) [nM]	IC50 (HUVEC [5]) [nM]	further results
Nc1ncc2cc(-c3c(Cl)cccc3Cl)c(N)nc2n1						IC50 [3]: 210 nM
COc1cc(OC)cc(-c2cc3cnc(NCCCN4CCOCC4)cc3nc2NC(=O)NC(C)(C)C)c1	45000		920	3100	85	IC50 (HUVEC [4]): 1 nM
Cn1c(SSc2c(C(=O)Nc3ccccc3)c3ccccc3n2C)c(C(=O)Nc2ccccc2)c2ccccc21						IC50 [6]: 4500 nM
COc1cc(OC)cc(-c2cc3cnc(N)cc3nc2NC(=O)Nc2ccccc2)c1	> 50000	510				
Cc1c[nH]c(/C=C2\C(=O)Nc3ccccc32)c1CCC(=O)O						IC50 [6]: 20000 nM
Nc1cc2nc(N)c(-c3c(Cl)cccc3Cl)cc2cn1	35000	2800				
Nc1cc2nc(N)c(-c3ccccc3)cc2cn1	17000	17000				
CC(C)(C)NC(=O)Nc1nc2cc(N)ncc2cc1-c1ccccc1	2600	1900				
COc1cc(OC)cc(-c2cc3cnc(N)nc3nc2N)c1	> 50000	230				
COc1cc(OC)cc(-c2cc3cnc(N)nc3nc2NC(=O)NC(C)(C)C)c1		600	15000	> 25000	580	IC50 (HUVEC [7]): 100 nM; IC50 (HUVEC [8]): 1100 nM
CCNC(=O)Nc1nc2cc(N)ncc2cc1-c1ccccc1	7700	1300				
COc1cc(OC)cc(-c2cc3cnc(N)cc3nc2N)c1	> 50000	200	17000	8900	820	
COc1cc(OC)cc(-c2cc3cnc(NC(=O)NC(C)(C)C)cc3nc2NC(=O)NC(C)(C)C)c1	> 50000	160	11000	13000	17	IC50 (HUVEC [7]): 10 nM
CCNC(=O)Nc1nc2cc(N)ncc2cc1-c1c(Cl)cccc1Cl	11000	150				
COC(=O)C1=C(c2ccccc2)c2ccccc2C1=O						IC50 [6]: 5100 nM

Further compounds by falling IC50 [2], results first:

IC50 [1] [nM]	IC50 [2] [nM]	IC50 (Ovarian cancer cell line) [nM]	Compound	IC50 (C6) [nM]	IC50 (HUVEC [5]) [nM]	further results
1100	130		CC(C)(C)NC(=O)Nc1nc2nc(N)ncc2cc1-c1c(Cl)cccc1Cl			
	130		CCNC(=O)Nc1nc2nc(N)ncc2cc1-c1c(Cl)cccc1Cl			
1800	120		CC(C)(C)NC(=O)Nc1nc2cc(N)ncc2cc1-c1c(Cl)cccc1Cl			
> 50000	95		CNC(=O)Nc1nc2cc(N)ncc2cc1-c1cc(OC)cc(OC)c1			
> 50000	61	17000	COc1cc(OC)cc(-c2cc3cnc(NC(=O)C(F)(F)F)cc3nc2N)c1	9000	4900	
38000	42	1200	COc1cc(OC)cc(-c2cc3cnc(N)cc3nc2NC(=O)NC(C)(C)C)c1	8500	5.5	IC50 (HUVEC [7]): 100 nM; IC50 (HUVEC [8]): > 10000 nM
> 50000	29	9300	CCNC(=O)Nc1nc2cc(N)ncc2cc1-c1cc(OC)cc(OC)c1	8000	170	
4700	25	12000	COc1cc(OC)cc(-c2cc3cnc(NC(C)=O)cc3nc2NC(=O)NC(C)(C)C)c1	650	4	IC50 (HUVEC [7]): 0.01 nM; Weight change (Mus musculus [9]): -0.7 g; T-C (Mus musculus [10]): 11.3 days; T-C (Mus musculus [11]): 10.8 days; IC50 (HUVEC [8]): 7 nM; Weight change (M5076 [12]): Weight gain; T/C (Mus musculus [13]): 109%; T/C (Mus musculus [14]): 0%; T/C (M5076 [15]): 78%; T-C (Mus musculus [16]): 0 days; Weight change (Mus musculus [17]): Weight gain; Weight change [18]: -0.4 g; T-C (M5076 [19]): 1 days
